Source: the supplement of paper PMC10307832

Columns and labels:
Experiment in all cases: relative viability (nuclei count vs DMSO), 5 days (fraction); higher = more cells survive
LCLC-97TM1 = tested on: LCLC-97TM1
Summary of the method: (§1)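 Each reported value is a median over duplicate plates. It expresses relative viability: treated-well nuclei count divided by vehicle-well nuclei count. Lung cancer cell lines in 1536-well plates were dosed by pin tool a day after seeding, alone with one drug or with a fixed anchor-drug dose plus five library-drug doses (not always all listed) in √10 steps, and nuclei were counted after 5 days.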

HARA = tested on: HARA
Summary of the method: as §1

EMC-BAC-2 = tested on: EMC-BAC-2
Summary of the method: as §1

NCI-H1915 = tested on: NCI-H1915
Summary of the method: as §1

PC-3 [JPC-3] = tested on: PC-3 [JPC-3]
Summary of the method: as §1

NCI-H23 = tested on: NCI-H23
Summary of the method: as §1

NCI-H1437 = tested on: NCI-H1437
Summary of the method: as §1

NCI-H322M = tested on: NCI-H322M
Summary of the method: as §1

NCI-H1793 = tested on: NCI-H1793
Summary of the method: as §1

HCC-827 = tested on: HCC-827
Summary of the method: as §1

EKVX = tested on: EKVX
Summary of the method: as §1

HCC-15 = tested on: HCC-15
Summary of the method: as §1

NCI-H2126 = tested on: NCI-H2126
Summary of the method: as §1

NCI-H1944 = tested on: NCI-H1944
Summary of the method: as §1

NCI-H441 = tested on: NCI-H441
Summary of the method: as §1

NCI-H661 = tested on: NCI-H661
Summary of the method: as §1

LU99A = tested on: LU99A
Summary of the method: as §1

LC-2-ad = tested on: LC-2-ad
Summary of the method: as §1

SK-LU-1 = tested on: SK-LU-1
Summary of the method: as §1

H3255 = tested on: H3255
Summary of the method: as §1

NCI-H460 = tested on: NCI-H460
Summary of the method: as §1

ChaGo-K-1 = tested on: ChaGo-K-1
Summary of the method: as §1

## O=c1[nH]c2ccccc2n1C1CCN(CCCC(c2ccc(F)cc2)c2ccc(F)cc2)CC1 [Pimozide] + COc1cc2c(Oc3ccc(NC(=O)C4(C(=O)Nc5ccc(F)cc5)CC4)cc3F)ccnc2cc1OCCCN1CCOCC1 [Foretinib] (partner 0.25 µM)
LCLC-97TM1; first compound 0.08 µM
  relative viability: 0.926
LCLC-97TM1; first compound 0.253 µM
  relative viability: 1.03
LCLC-97TM1; first compound 0.8 µM
  relative viability: 0.823
LCLC-97TM1; first compound 2.53 µM
  relative viability: 0.852
LCLC-97TM1; first compound 8 µM
  relative viability: 0.789
HARA; first compound 0.253 µM
  relative viability: 0.874
HARA; first compound 0.8 µM
  relative viability: 0.873
HARA; first compound 2.53 µM
  relative viability: 0.733
HARA; first compound 8 µM
  relative viability: 0.766
EMC-BAC-2; first compound 0.08 µM
  relative viability: 0.989
EMC-BAC-2; first compound 0.253 µM
  relative viability: 1.03
EMC-BAC-2; first compound 0.8 µM
  relative viability: 0.986
EMC-BAC-2; first compound 2.53 µM
  relative viability: 0.841
EMC-BAC-2; first compound 8 µM
  relative viability: 0.686
NCI-H1915; first compound 0.08 µM
  relative viability: 1.05
NCI-H1915; first compound 0.253 µM
  relative viability: 1.01
NCI-H1915; first compound 0.8 µM
  relative viability: 0.855
NCI-H1915; first compound 2.53 µM
  relative viability: 0.974
NCI-H1915; first compound 8 µM
  relative viability: 1.05
PC-3 [JPC-3]; first compound 0.08 µM
  relative viability: 0.839
PC-3 [JPC-3]; first compound 0.253 µM
  relative viability: 1.03
PC-3 [JPC-3]; first compound 0.8 µM
  relative viability: 0.952
PC-3 [JPC-3]; first compound 2.53 µM
  relative viability: 0.931
PC-3 [JPC-3]; first compound 8 µM
  relative viability: 0.86
NCI-H23; first compound 0.08 µM
  relative viability: 0.676
NCI-H23; first compound 0.253 µM
  relative viability: 1.07
NCI-H23; first compound 0.8 µM
  relative viability: 0.833
NCI-H23; first compound 2.53 µM
  relative viability: 0.712
NCI-H23; first compound 8 µM
  relative viability: 0.829
NCI-H1437; first compound 0.08 µM
  relative viability: 1.27
NCI-H1437; first compound 0.253 µM
  relative viability: 1.21
NCI-H1437; first compound 0.8 µM
  relative viability: 1.21
NCI-H1437; first compound 2.53 µM
  relative viability: 1.28
NCI-H1437; first compound 8 µM
  relative viability: 1.18
NCI-H322M; first compound 0.253 µM
  relative viability: 1.04
NCI-H322M; first compound 0.8 µM
  relative viability: 0.85
NCI-H322M; first compound 2.53 µM
  relative viability: 0.942
NCI-H322M; first compound 8 µM
  relative viability: 0.844
NCI-H1793; first compound 0.253 µM
  relative viability: 0.691
NCI-H1793; first compound 0.8 µM
  relative viability: 0.462
NCI-H1793; first compound 2.53 µM
  relative viability: 0.582
NCI-H1793; first compound 8 µM
  relative viability: 0.521
HCC-827; first compound 0.253 µM
  relative viability: 1.01
HCC-827; first compound 0.8 µM
  relative viability: 0.915
HCC-827; first compound 2.53 µM
  relative viability: 0.967
HCC-827; first compound 8 µM
  relative viability: 0.904
EKVX; first compound 0.08 µM
  relative viability: 0.196
EKVX; first compound 0.253 µM
  relative viability: 0.827
EKVX; first compound 0.8 µM
  relative viability: 0.764
EKVX; first compound 2.53 µM
  relative viability: 0.747
EKVX; first compound 8 µM
  relative viability: 0.908
HCC-15; first compound 0.08 µM
  relative viability: 1.09
HCC-15; first compound 0.253 µM
  relative viability: 1.01
HCC-15; first compound 0.8 µM
  relative viability: 0.868
HCC-15; first compound 2.53 µM
  relative viability: 0.964
HCC-15; first compound 8 µM
  relative viability: 0.94
NCI-H2126; first compound 0.08 µM
  relative viability: 1.39
NCI-H2126; first compound 0.253 µM
  relative viability: 1.14
NCI-H2126; first compound 0.8 µM
  relative viability: 1.06
NCI-H2126; first compound 2.53 µM
  relative viability: 1.23
NCI-H2126; first compound 8 µM
  relative viability: 1.13
NCI-H1944; first compound 0.08 µM
  relative viability: 0.901
NCI-H1944; first compound 0.253 µM
  relative viability: 0.891
NCI-H1944; first compound 0.8 µM
  relative viability: 0.807
NCI-H1944; first compound 2.53 µM
  relative viability: 0.735
NCI-H1944; first compound 8 µM
  relative viability: 0.817
NCI-H441; first compound 0.08 µM
  relative viability: 1.09
NCI-H441; first compound 0.253 µM
  relative viability: 1.16
NCI-H441; first compound 0.8 µM
  relative viability: 1.1
NCI-H441; first compound 2.53 µM
  relative viability: 0.948
NCI-H441; first compound 8 µM
  relative viability: 0.922
NCI-H661; first compound 0.08 µM
  relative viability: 1.02
NCI-H661; first compound 0.253 µM
  relative viability: 1.03
NCI-H661; first compound 0.8 µM
  relative viability: 0.929
NCI-H661; first compound 2.53 µM
  relative viability: 0.921
NCI-H661; first compound 8 µM
  relative viability: 0.907
LU99A; first compound 0.08 µM
  relative viability: 0.872
LU99A; first compound 0.253 µM
  relative viability: 0.756
LU99A; first compound 0.8 µM
  relative viability: 0.922
LU99A; first compound 2.53 µM
  relative viability: 0.84
LU99A; first compound 8 µM
  relative viability: 0.922
LC-2-ad; first compound 0.08 µM
  relative viability: 0.911
LC-2-ad; first compound 0.253 µM
  relative viability: 0.928
LC-2-ad; first compound 0.8 µM
  relative viability: 0.909
LC-2-ad; first compound 2.53 µM
  relative viability: 0.901
LC-2-ad; first compound 8 µM
  relative viability: 0.868
SK-LU-1; first compound 0.08 µM
  relative viability: 0.888
SK-LU-1; first compound 0.253 µM
  relative viability: 0.793
SK-LU-1; first compound 0.8 µM
  relative viability: 0.783
SK-LU-1; first compound 2.53 µM
  relative viability: 0.777
SK-LU-1; first compound 8 µM
  relative viability: 0.637
H3255; first compound 0.253 µM
  relative viability: 0.781
H3255; first compound 0.8 µM
  relative viability: 0.775
H3255; first compound 2.53 µM
  relative viability: 0.78
H3255; first compound 8 µM
  relative viability: 0.894
NCI-H460; first compound 0.08 µM
  relative viability: 0.973
NCI-H460; first compound 0.253 µM
  relative viability: 1.03
NCI-H460; first compound 0.8 µM
  relative viability: 0.872
NCI-H460; first compound 2.53 µM
  relative viability: 0.864
NCI-H460; first compound 8 µM
  relative viability: 0.867
ChaGo-K-1; first compound 0.08 µM
  relative viability: 0.937
ChaGo-K-1; first compound 0.253 µM
  relative viability: 0.899
ChaGo-K-1; first compound 0.8 µM
  relative viability: 0.879
ChaGo-K-1; first compound 2.53 µM
  relative viability: 0.811
ChaGo-K-1; first compound 8 µM
  relative viability: 0.908
